Read-outs that look alike come from different tables or passages of the source.
What was measured:
Format in all cases: cell-based, human
Target C [1] = experiment: Splicing RT-qPCR panel, Target C canonical junction (CJ) mRNA; conditions: read-out: Target C IC50 (decrease in CJ mRNA levels)
Procedure, shortened: (§1)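 Splice switching is measured in A673 or K562 cells after 24 h compound exposure (maximum 10 uM, 3-fold steps). Canonical and alternative junction mRNA levels are quantified by RT-qPCR relative to housekeeper and DMSO.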

HTT [2] = experiment: HiBiT protein abundance assay, HTT; conditions: modified K562 cells
Procedure, shortened: (§2)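 Target abundance was measured as HiBiT luminescence after 24 h compound treatment of tagged K562 cells. Responses were normalized between unmodified K562 and DMSO-treated tagged cells, and IC50 taken at the 50% level of a 4PL curve.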

Target C [3] = experiment: HiBiT protein abundance assay, Target C; conditions: modified K562 cells
Procedure, shortened: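 Cells carrying the HiBiT knock-in were plated at 10000 cells/well, dosed with compound (10-point, 3-fold, 10 μM top final) and incubated 24 hours at 37 °C. Lytic reagent was then added and luminescence read. Percent response fed a 4PL fit for IC50.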

MYB [4] = experiment: Splicing RT-qPCR assay, MYB mRNA canonical junction (CJ) and alternative junction (AJ); conditions: for AC50: increase in AJ mRNA
Procedure, shortened: as §1

HTT [5] = experiment: Splicing RT-qPCR assay, HTT mRNA canonical junction (CJ) and alternative junction (AJ); conditions: for AC50: increase in AJ mRNA
Procedure, shortened: as §1

SMN2 = experiment: Splicing RT-qPCR panel, SMN2 canonical junction (CJ) mRNA; conditions: read-out: SMN2 IC50 (decrease in CJ mRNA levels)
Procedure, shortened: as §1

MYB [6] = experiment: HiBiT protein abundance assay, MYB; conditions: modified K562 cells
Procedure, shortened: as §2

[7] = Homo sapiens, RT-qPCR panel, canonical junction mRNA, compound concentration having 50% response in CJ decrease
[8] = Homo sapiens, K562, 24 h, Table 13A
[9] = Homo sapiens, 24 h, decrease in CJ mRNA, A673 or K562 cells, 24 hours treatment, RT-qPCR, read-out: MYB CJ IC50
[10] = Homo sapiens, 24 h, A673 or K562 cells, 24 hours treatment, RT-qPCR
[11] = Homo sapiens, RT-qPCR panel, canonical junction mRNA, compound concentration having 50% response in CJ decrease, read-out: MYB IC50 (decrease in CJ mRNA levels)
[12] = Homo sapiens, 24 h, decrease in CJ mRNA, A673 or K562 cells, 24 hours treatment, RT-qPCR, read-out: HTT CJ IC50
[13] = Homo sapiens, RT-qPCR panel, canonical junction mRNA, compound concentration having 50% response in CJ decrease, read-out: HTT IC50 (decrease in CJ mRNA levels)
[14] = Homo sapiens, gene panel, CJ qPCR, protocol of Example 142
[15] = Homo sapiens, K562, 24 h, Table 13B
[16] = Homo sapiens, gene panel, CJ qPCR, protocol of Example 142, read-out: MYB IC50 (decrease in CJ mRNA levels)
[17] = Homo sapiens, gene panel, CJ qPCR, protocol of Example 142, read-out: HTT IC50 (decrease in CJ mRNA levels)
[18] = RT-qPCR panel, canonical junction mRNA, compound concentration having 50% response in CJ decrease

SMILES | IC50 (Target C [1]; [7]) [µM] | IC50 (HTT [2]; [8]) [µM] | IC50 (Target C [3]; [8]) [µM] | IC50 (MYB [4]; [9]) [µM] | AC50 (MYB [4]; [10]) [µM] | IC50 (MYB [4]; [11]) [µM] | IC50 (HTT [5]; [12]) [µM] | AC50 (HTT [5]; [10]) [µM] | IC50 (HTT [5]; [13]) [µM] | IC50 (SMN2; [7]) [µM] | IC50 (MYB [6]; [8]) [µM] | further results
CC(C)(C)NC1CCN(c2ccc(-c3ccc(-n4cccn4)c4cn[nH]c34)nn2)C1 (stereo not shown) [Compound 310] | > 10 | 1 to 10 | 1 to 10 | 1 to 10 | > 10 | 1 to 10 | 1 to 10 | 1 to 10 | 1 to 10 | 0.1 to 1 | 1 to 10 | 
CN(c1ncc(-c2ccc(-c3cn[nH]c3)c3ncsc23)nn1)C1CC2CCC(C1)N2 (stereo not shown) [Compound 443] | 0.1 to 1 | < 0.1 | < 0.1 |  |  | 1 to 10 |  |  | < 0.1 | 0.1 to 1 | 0.1 to 1 | 
Cc1n[nH]c2c(-c3ccc(N(C)[C@@H]4C[C@H]5CC[C@@H](C4)N5)nn3)ccc(-c3cnn(C)n3)c12 [Compound 375, (1R,3S,5S)-N-methyl-N-{6-[3-methyl-4-(2-methyl-1,2,3-triazol-4-yl)-1H-indazol-7-yl]pyridazin-3-yl}-8-azabicyclo[3.2.1]octan-3-amine] | > 10 | > 10 | > 10 | > 10 | > 10 | > 10 | > 10 | > 10 | > 10 | > 10 | > 10 | 
CC1(C)CC(Nc2ccc(-c3ccc(-n4cccn4)c4[nH]ncc34)nn2)CC(C)(C)N1 [Compound 558] | 0.1 to 1 | < 0.1 | < 0.1 |  |  | 0.1 to 1 |  |  | 0.1 to 1 | < 0.1 | 0.1 to 1 | 
COc1nc(-c2ccc(NC3CCNCC3)nn2)ccc1-c1cn[nH]c1 [Compound 924] |  |  |  |  |  |  |  |  |  |  |  | IC50 (Target C [1]; [14]): > 10 µM; IC50 (HTT [2]; [15]): > 10 µM; IC50 (Target C [3]; [15]): > 10 µM; IC50 (MYB [4]; [16]): > 10 µM; IC50 (HTT [5]; [17]): 1 to 10 µM; IC50 (SMN2; [14]): 0.1 to 1 µM; IC50 (MYB [6]; [15]): 1 to 10 µM
COc1nc(-c2ccc(NC3CCNCC3)nc2)ccc1-c1cnn(C)n1 [Compound 988] |  |  |  |  |  |  |  |  |  |  |  | IC50 (Target C [1]; [14]): > 10 µM; IC50 (HTT [2]; [15]): 1 to 10 µM; IC50 (Target C [3]; [15]): 1 to 10 µM; IC50 (MYB [4]; [16]): > 10 µM; IC50 (HTT [5]; [17]): 1 to 10 µM; IC50 (SMN2; [14]): 0.1 to 1 µM; IC50 (MYB [6]; [15]): 1 to 10 µM
CN(c1ccc(-c2cc(F)c(-c3cnn(C)c3)c3cn[nH]c23)nn1)C1CC(C)(C)NC(C)(C)C1 [Compound 326, 6-[5-fluoro-4-(1-methylpyrazol-4-yl)-1H-indazol-7-yl]-N-methyl-N-(2,2,6,6-tetramethylpiperidin-4-yl)pyridazin-3-amine] |  |  |  |  |  |  |  |  |  |  |  | IC50 (Target C [1]; [18]): 1 to 10 µM; IC50 (HTT [2]; Table 13A, 24 hours): 0.1 to 1 µM; IC50 (Target C [3]; Table 13A, 24 hours): 1 to 10 µM; IC50 (MYB [4]; RT-qPCR panel, canonical junction mRNA, compound concentration having 50% response in CJ decrease, read-out: MYB IC50 (decrease in CJ mRNA levels)): 0.1 to 1 µM; IC50 (MYB [4]; decrease in CJ mRNA, A673 or K562 cells, 24 hours treatment, RT-qPCR, read-out: MYB CJ IC50): 0.1 to 1 µM; IC50 (HTT [5]; RT-qPCR panel, canonical junction mRNA, compound concentration having 50% response in CJ decrease, read-out: HTT IC50 (decrease in CJ mRNA levels)): 0.1 to 1 µM; IC50 (HTT [5]; decrease in CJ mRNA, A673 or K562 cells, 24 hours treatment, RT-qPCR, read-out: HTT CJ IC50): 0.1 to 1 µM; IC50 (SMN2; [18]): < 0.1 µM; IC50 (MYB [6]; Table 13A, 24 hours): 0.1 to 1 µM
c1nc2c(-c3cn[nH]c3)ccc(-c3ccc(N(C4CC4)C4C[C@H]5CC[C@@H](C4)N5)nn3)c2s1 (stereo partly drawn) [Compound 360, (exo)-N-cyclopropyl-N-{6-[4-(1H-pyrazol-4-yl)-1,3-benzothiazol-7-yl]pyridazin-3-yl}-8-azabicyclo [3.2.1] octan-3-amine] | 0.1 to 1 | 0.1 to 1 | < 0.1 | 0.1 to 1 | 0.1 to 1 | 0.1 to 1 |  | < 0.1 | < 0.1 | 0.1 to 1 | 0.1 to 1 | 
Cn1cc(-c2ccc(-c3ccc(N[C@@H]4C[C@H]5CC[C@@H](C4)N5)nn3)c3[nH]ncc23)nn1 [Compound 324, (1R,3s,5S)-N-(6-(4-(1-methyl-1H-1,2,3-triazol-4-yl)-1H-indazol-7-yl)pyridazin-3-yl)-8-azabicyclo[3.2.1]octan-3-amine] | > 10 | 1 to 10 | 1 to 10 | 1 to 10 | 1 to 10 | 1 to 10 | 1 to 10 | 1 to 10 | 1 to 10 | 0.1 to 1 | 1 to 10 | 
c1nc2c(-c3cn[nH]c3)ccc(-c3ccc(N4CCC5(CCN5)C4)nn3)c2s1 (stereo not shown) [Compound 265] | > 10 | > 10 | > 10 | 1 to 10 | > 10 | 1 to 10 | > 10 | > 10 | > 10 | 0.1 to 1 | > 10 | 

From patent publication US20240368163A1, “COMPOUNDS AND METHODS FOR MODULATING SPLICING” (REMIX THERAPEUTICS INC., priority 2021, published 2024)
